Data reported in US20240059703A1 (AMGEN INC., priority 2021, published 2024).

Assays:
KRAS G12C = KRAS G12C (Homo sapiens (Human), UniProt P01116, C118A/G12C); experiment: 2 h coupled exchange assay; type: biochemical; settings: Avg 2 h Coupled exchange IC50, 2 h compound pre-incubation
Procedure: The term “2 h coupled exchange assay” or “20 h coupled exchange assay” as used herein refers to the assay described in the Section entitled “BIOLOGICAL EVALUATION.”

[1] = tested on: A549 (human lung carcinoma) cells; experiment: Cell Viability Assay (CellTiter-Glo), A549; type: cell-based
Procedure, shortened: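 MIA PaCa-2 or A549 cells in RPMI 1640 with 10% FBS were seeded at 1.67E+04 cells/mL and incubated overnight. Serially diluted compound was then added for 72 h at 37° C, 5% CO2. Viability read by CellTiter-Glo luminescence, normalized to DMSO, with IC50 from a 4-parameter logistic fit.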

[2] = tested on: MIA PaCa-2 (human pancreatic carcinoma) cells; experiment: Cell Viability Assay (CellTiter-Glo), MIA PaCa-2; type: cell-based
Procedure: Serially-diluted compound or DMSO was added to the cells, and plates were incubated at 37° C., 5% CO2 for 72 h. Cell viability was measured using a CellTiter-Glo® Luminescent Cell Viability Assay kit (Promega) according to the manufacturer's protocol. The luminescence signal of treated samples was normalized to DMSO control, and data were analyzed using a 4-parameter logistic model to calculate IC50 values.

[3] = SOS-mediated nucleotide exchange

Chain of KRAS G12C (P01116 other isoform, or with tags, fused parts or gaps G12C/C118A): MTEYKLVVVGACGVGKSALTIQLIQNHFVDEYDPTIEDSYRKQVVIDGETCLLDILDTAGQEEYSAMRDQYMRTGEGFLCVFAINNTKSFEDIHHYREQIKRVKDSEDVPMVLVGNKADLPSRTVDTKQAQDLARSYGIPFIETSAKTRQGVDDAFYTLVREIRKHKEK

IC50 (KRAS G12C) [nM]	IC50 ([1]; Homo sapiens, A549, 72 h) [nM]	IC50 ([2]; Homo sapiens, MIA PaCa-2, 72 h) [nM]	IC50 (KRAS G12C; [3]) [nM]	IC50 ([2]; 72 h) [nM]	IC50 ([1]; 72 h) [nM]	Structure (SMILES)
802	> 25000	1310	–	–	–	C=CC(=O)N1CC2(CCN(c3nc4c(c(-c5ncccc5C)c3C#N)COC(c3scnc3C)C4)C2)C1 [Example 23-14, (7R)-4-(3-methyl-2-pyridinyl)-7-(4-methyl-1,3-thiazol-5-yl)-2-(2-(2-propenoyl)-2,6-diazaspiro[3.4]octan-6-yl)-7,8-dihydro-5H-pyrano[4,3-b]pyridine-3-carbonitrile (7S)-4-(3-methyl-2-pyridinyl)-7-(4-methyl-1,3-thiazol-5-yl)-2-(2-(2-propenoyl)-2,6-diazaspiro[3.4]octan-6-yl)-7,8-dihydro-5H-pyrano[4,3-b]pyridine-3-carbonitrile]
264	> 5000	> 5000	–	–	–	C=CC(=O)N1CC2(CCN(c3nc4c(c(-c5cc(O)ccc5Cl)c3C#N)CCN(C(C)C)C4)C2)C1 [Example 21-9, 4-(2-chloro-5-hydroxyphenyl)-7-(2-propanyl)-2-(2-(2-propenoyl)-2,6-diazaspiro[3.4]octan-6-yl)-5,6,7,8-tetrahydro-1,7-naphthyridine-3-carbonitrile]
–	> 5000	51	22	–	–	C=CC(=O)N1CC2(CCN(c3nc4c(c(-c5c(C)ccc6cnn(C)c56)c3C#N)[C@@H]3CC[C@H]4C3)C2)C1 (single isomer, unassigned) [Example 14-17]
34	> 5000	–	–	170	–	C=CC(=O)N1CC2(CCN(c3nc4c(c(-c5ccccc5Cl)c3C#N)CCN(c3scnc3C)C4)C2)C1 (single isomer, unassigned) [Example 21-22, (P)-4-(2-chlorophenyl)-7-(4-methyl-1,3-thiazol-5-yl)-2-(2-(2-propenoyl)-2,6-diazaspiro[3.4]octan-6-yl)-5,6,7,8-tetrahydro-1,7-naphthyridine-3-carbonitrile]
40	> 5000	71	–	–	–	C=CC(=O)N1CC2(CCN(c3nc4c(c(-c5ccc(F)c6sc(N)nc56)c3C#N)COC(C)(C)C4)C2)C1 (single isomer, unassigned) [Example 14-57, (P)-4-(2-amino-7-fluoro-1,3-benzothiazol-4-yl)-7,7-dimethyl-2-(2-(2-propenoyl)-2,6-diazaspiro[3.4]octan-6-yl)-7,8-dihydro-5H-pyrano[4,3-b]pyridine-3-carbonitrile]
–	> 5000	231	43	–	–	C=CC(=O)N1CC2(CCN(c3nc4c(c(-c5c(C)ccc6[nH]ncc56)c3C#N)CC(C)(C)C4)C2C)C1 [Example 13-52, 6,6-dimethyl-4-(5-methyl-1H-indazol-4-yl)-2-((5R)-5-methyl-2-(2-propenoyl)-2,6-diazaspiro[3.4]octan-6-yl)-6,7-dihydro-5H-cyclopenta[b]pyridine-3-carbonitrile|6,6-dimethyl-4-(5-methyl-1H-indazol-4-yl)-2-((5S)-5-methyl-2-(2-propenoyl)-2,6-diazaspiro[3.4]octan-6-yl)-6,7-dihydro-5H-cyclopenta[b]pyridine-3-carbonitrile]
–	> 5000	462	93	–	–	C=CC(=O)N1CC2(CCN(c3nc4c(c(-c5c(C)ccc6[nH]ncc56)c3C#N)[C@H](C)O[C@H](C)C4)C2)C1 (racemic) [Example 13-13, (5R,7S)-5,7-dimethyl-4-(5-methyl-1H-indazol-4-yl)-2-(2-(2-propenoyl)-2,6-diazaspiro[3.4]octan-6-yl)-7,8-dihydro-5H-pyrano[4,3-b]pyridine-3-carbonitrile|(5S,7R)-5,7-dimethyl-4-(5-methyl-1H-indazol-4-yl)-2-(2-(2-propenoyl)-2,6-diazaspiro[3.4]octan-6-yl)-7,8-dihydro-5H-pyrano[4,3-b]pyridine-3-carbonitrile]
–	> 5000	517	34	–	–	C=CC(=O)N1CC2(CCN(c3nc4c(c(-c5c(C)ccc6[nH]ncc56)c3C#N)CC3(CC3)C4)C2)C1 [Example 13-14, 4-(5-methyl-1H-indazol-4-yl)-2-(2-(2-propenoyl)-2,6-diazaspiro[3.4]octan-6-yl)-5,7-dihydrospiro[cyclopenta[b]pyridine-6,1′-cyclopropane]-3-carbonitrile]
124	9150	817	–	–	–	C=CC(=O)N1CC2(CCN(c3nc4cc(-c5scnc5COC)ccc4c(-c4ccccc4F)c3C#N)C2)C1 [Example 20-16, 4-(2-fluorophenyl)-7-(4-(methoxymethyl)-1,3-thiazol-5-yl)-2-(2-(2-propenoyl)-2,6-diazaspiro[3.4]octan-6-yl)-3-quinolinecarbonitrile]
282	–	–	–	1950	5500	C=CC(=O)N1CC2(CCN(c3nc4c(c(-c5ccc(F)cc5Cl)c3C#N)CCC(c3scnc3C)=C4)C2)C1 (atropisomer, axis not shown; (M)) [Example 23-32, (M)-4-(2-chloro-4-fluorophenyl)-7-(4-methyl-1,3-thiazol-5-yl)-2-(2-(2-propenoyl)-2,6-diazaspiro[3.4]octan-6-yl)-5,6-dihydro-3-quinolinecarbonitrile]
–	> 5000	9	17	–	–	C=CC(=O)N1CC2(CCN(c3nc4c(c(-c5c(C)ccc6[nH]ncc56)c3C#N)[C@@H]3CC[C@H]4C3)C2)C1 (single isomer, unassigned) [Example 14-4]
–	> 5000	–	76	> 5000	–	C=CC(=O)N1CC2(CCN(c3nc4c(c(-c5cc(O)c(F)c6ccccc56)c3C#N)CC[C@@H]3C[C@H]43)C2)C1 (single isomer, unassigned) [Example 13-74]
–	> 5000	25	33	–	–	C=CC(=O)N1CC2(CCN(c3cc4c(c(-c5c(C)ccc6[nH]ncc56)c3C#N)COCC4)C2)C1 (single isomer, unassigned) [Example 2-100, (P)-8-(5-methyl-1H-indazol-4-yl)-6-(2-(2-propenoyl)-2,6-diazaspiro[3.4]octan-6-yl)-3,4-dihydro-1H-2-benzopyran-7-carbonitrile]
–	> 5000	479	108	–	–	C=CC(=O)N1CC2(CCN(c3nc4c(c(-c5c(C)ccc6[nH]ncc56)c3C#N)C3C(C4)C3(C)C)C2)C1 (stereo not drawn) [Example 13-84]
–	> 5000	214	102	–	–	C=CC(=O)N1CC2(CCN(c3nc4c(c(-c5cc(O)cc6ccccc56)c3C)CCC(C)(C)C4)C2)C1 [Example 2-27, 1-(6-(4-(3-hydroxy-1-naphthalenyl)-3,7,7-trimethyl-5,6,7,8-tetrahydro-2-quinolinyl)-2,6-diazaspiro[3,4]octan-2-yl)-2-propen-1-one]
178	> 5000	507	–	–	–	C=CC(=O)N1CC2(CCN(c3nc4c(c(-c5ncccc5C)c3C#N)CCC(c3scnc3C)=C4)C2)C1 [Example 23-1, 4-(3-Methyl-2-pyridinyl)-7-(4-methyl-1,3-thiazol-5-yl)-2-(2-(2-propenoyl)-2,6-diazaspiro[3.4]octan-6-yl)-5,6-dihydro-3-quinolinecarbonitrile]
841	10700	2060	–	–	–	C=CC(=O)N1CC2(CCN(c3nc4c(c(-c5ncccc5F)c3C#N)CCC(c3c(C)cnn3C)=C4)C2)C1 [Example 23-58, 7-(1,4-dimethyl-1H-pyrazol-5-yl)-4-(3-fluoro-2-pyridinyl)-2-(2-(2-propenoyl)-2,6-diazaspiro[3.4]octan-6-yl)-5,6-dihydro-3-quinolinecarbonitrile]
211	15400	2090	–	–	–	C=CC(=O)N1CC2(CCN(c3nc4c(c(-c5ccccc5F)c3C#N)CCN(C3CCCN(C)C3)C4)C2)C1 [Example 21-30, 4-(2-fluorophenyl)-7-((3R)-1-methyl-3-piperidinyl)-2-(2-(2-propenoyl)-2,6-diazaspiro[3.4]octan-6-yl)-5,6,7,8-tetrahydro-1,7-naphthyridine-3-carbonitrile 4-(2-fluorophenyl)-7-((3S)-1-methyl-3-piperidinyl)-2-(2-(2-propenoyl)-2,6-diazaspiro[3.4]octan-6-yl)-5,6,7,8-tetrahydro-1,7-naphthyridine-3-carbonitrile]
38	> 5000	–	–	1190	–	C=CC(=O)N1CC2(CCN(c3nc4c(c(-c5c(O)cccc5F)c3C#N)CCC(c3scnc3C)=C4)C2)C1 (single isomer, unassigned) [Example 23-50, (P)-4-(2-fluoro-6-hydroxyphenyl)-7-(4-methyl-1,3-thiazol-5-yl)-2-(2-(2-propenoyl)-2,6-diazaspiro[3.4]octan-6-yl)-5,6-dihydro-3-quinolinecarbonitrile]
67	> 5000	> 5000	–	–	–	C=CC(=O)N1CC2(CCN(c3nc4c(c(-c5cccc(O)c5F)c3C#N)CCN(c3scnc3C)C4)C2)C1 [Example 35-1, 4-(2-fluoro-3-hydroxyphenyl)-7-(4-methyl-1,3-thiazol-5-yl)-2-(2-(2-propenoyl)-2,6-diazaspiro[3.4]octan-6-yl)-5,6,7,8-tetrahydro-1,7-naphthyridine-3-carbonitrile]

Structure (SMILES)	IC50 (KRAS G12C) [nM]	IC50 ([1]; Homo sapiens, A549, 72 h) [nM]	IC50 ([2]; Homo sapiens, MIA PaCa-2, 72 h) [nM]	IC50 (KRAS G12C; [3]) [nM]	IC50 ([2]; 72 h) [nM]	IC50 ([1]; 72 h) [nM]
C=CC(=O)N1CC2(CCN(c3nc4c(c(-c5cc(O)ccc5F)c3C#N)CC3CCC4N3C(C)C)C2)C1 (stereo not drawn) [Example 21-8]	933	> 25000	5560	–	–	–
